Measured values published in publication PMC12396409, “Screening and hit evaluation of a microbial metabolite library against the pathogenic Plasmodium falciparum and Toxoplasma gondii parasites” (International Journal for Parasitology: Drugs and Drug …, 2025).
Where two headings read alike, the source gives them in different places. *1 amine or outer side, *2 acyl side, *3 side chain or, on linkers, in order; H or OH if unused. Where a SMILES comes first, the peptide text is derived from it. Bridges are numbered along the chain shown (N, C = ends). [ ]: non-standard residue; d: D form. hTyr(3S-OH,4S-OH,3'-OSO3H) = N[C@H](C(=O)O)[C@H](O)[C@@H](O)c1ccc(O)c(OS(=O)(=O)O)c1; Orn(4R-OH,5R-OH) = O=C([C@H](C[C@@H](O)[C@@H](O)N[*:3])N[*:1])[*:2]; Pro(3S-OH,4S-Me) = C[C@H]1CN[C@H](C(=O)O)[C@H]1O; Gln(3R-OH) = NC(=O)C[C@@H](O)[C@H](N)C(=O)O; Hyp = O=C(O)[C@@H]1C[C@@H](O)CN1

Columns and labels:
[1] = system: T. gondii RH strain (RH-Tub-eYFP) tachyzoites; assay: microbe, parasite or virus in culture; format: cell-based, Toxoplasma gondii; details: for percent parasite growth at 2 µg/mL: Toxoplasma gondii
[2] = system: P. falciparum 3D7 parasites; assay: P. falciparum growth inhibition assay, 2-cycle (120 h treatment), delayed-death screen and dose-response; format: cell-based, Plasmodium falciparum; details: for activity at 2 µg/mL: Plasmodium falciparum
[3] = system: P. falciparum 3D7 parasites; assay: P. falciparum growth inhibition assay, 1-cycle (72 h treatment), SYBR DNA staining (library screen at 2 μg/mL and dose-response); format: cell-based, Plasmodium falciparum; details: for activity at 2 µg/mL: Plasmodium falciparum
[4] = T. gondii RH, 72 h, library screen at 2 μg/mL, % growth, replicate 1
[5] = T. gondii RH, 72 h, library screen at 2 μg/mL, % growth, replicate 2
[6] = P. falciparum 3D7, 120 h, library screen at 2 μg/mL, % growth, replicate 1
[7] = P. falciparum 3D7, 120 h, library screen at 2 μg/mL, % growth, replicate 2
[8] = P. falciparum 3D7, 72 h, library screen at 2 μg/mL, % growth, replicate 1
[9] = P. falciparum 3D7, 72 h, library screen at 2 μg/mL, % growth, replicate 2
[10] = T. gondii, 72 h, screen at 2 μg/mL, replicate 1
[11] = T. gondii, 72 h, screen at 2 μg/mL, replicate 2
[12] = P. falciparum, 120 h, screen at 2 μg/mL, replicate 1
[13] = P. falciparum, 120 h, screen at 2 μg/mL, replicate 2
[14] = P. falciparum, 72 h, screen at 2 μg/mL, replicate 1
[15] = P. falciparum, 72 h, screen at 2 μg/mL, replicate 2
[16] = 72 h, T. gondii, 72 h, parasite screen 2 μg/mL, % growth, replicate 1, read-out: Tg_72h_%Growth_Rep1
[17] = 72 h, T. gondii, 72 h, parasite screen 2 μg/mL, % growth, replicate 2, read-out: Tg_72h_%Growth_Rep2
[18] = 3D7, 120 h, P. falciparum, 120 h, parasite screen 2 μg/mL, % growth, replicate 1, read-out: Pf_120h_%Growth_Rep1
[19] = 3D7, 120 h, P. falciparum, 120 h, parasite screen 2 μg/mL, % growth, replicate 2, read-out: Pf_120h_%Growth_Rep2
[20] = 3D7, 72 h, P. falciparum, 72 h, parasite screen 2 μg/mL, % growth, replicate 1, read-out: Pf_72h_%Growth_Rep1
[21] = 3D7, 72 h, P. falciparum, 72 h, parasite screen 2 μg/mL, % growth, replicate 2, read-out: Pf_72h_%Growth_Rep2
[22] = library screen at 2 μg/mL, 72 h, % growth, replicate 1
[23] = library screen at 2 μg/mL, 72 h, % growth, replicate 2
[24] = library screen at 2 μg/mL, 120 h, % growth, replicate 1
[25] = library screen at 2 μg/mL, 120 h, % growth, replicate 2

C=C1c2c(Cl)ccc(O)c2C(=O)C2=C(O)[C@]3(O)C(=O)C(C(N)=O)=C(O)[C@@H](N(C)C)[C@@H]3[C@@H](O)[C@H]12 [BIA-M1464]
Tg_72h_%Growth_Rep1 [1, 4]: 124.80%
Tg_72h_%Growth_Rep2 [1, 5]: 96.61%
Pf_120h_%Growth_Rep1 [2, 6]: 99.01%
Pf_120h_%Growth_Rep2 [2, 7]: 114.33%
Pf_72h_%Growth_Rep1 [3, 8]: 76.80%
Pf_72h_%Growth_Rep2 [3, 9]: 116.17%

CCC[C@@H]1C[C@@H](C(=O)N[C@@H]([C@H]2O[C@H](SC)[C@H](OP(=O)(O)O)[C@@H](O)[C@H]2O)[C@H](C)Cl)N(C)C1 [Clindamycin 2-phosphate, reference compound]
Tg_72h_%Growth_Rep1 [1]: 25.11%
Tg_72h_%Growth_Rep2 [1]: 20.67%
2) Growth (%) at 120 h [2]: 9.80%
3) Fold change (72 h/120 h) [2]: 6.9
Pf_120h_%Growth_Rep1 [2]: 15.54%
Pf_120h_%Growth_Rep2 [2]: 4.05%
1) Growth (%) at 72 h [3]: 67.91%
Pf_72h_%Growth_Rep1 [3]: 73.78%
Pf_72h_%Growth_Rep2 [3]: 62.04%

COc1cc(=O)oc(/C=C/C=C/C=C/C(C)=C/[C@@]2(C)O[C@H](C)[C@](C)(O)[C@H]2O)c1C [Citreoviridin]
Tg_72h_%Growth_Rep1 [1, 10]: 86.37%
Tg_72h_%Growth_Rep2 [1, 11]: 89.97%
Pf_120h_%Growth_Rep1 [2, 12]: 141.81%
Pf_120h_%Growth_Rep2 [2, 13]: 93.96%
Pf_72h_%Growth_Rep1 [3, 14]: 92.20%
Pf_72h_%Growth_Rep2 [3, 15]: 86.47%

CO[C@H]1C[C@@H]2CC[C@@H](C)[C@@](O)(O2)C(=O)C(=O)N2CCCC[C@H]2C(=O)O[C@H]([C@H](C)C[C@@H]2CC[C@@H](O)[C@H](OC)C2)CC(=O)[C@H](C)/C=C(\C)[C@@H](O)[C@@H](OC)C(=O)[C@H](C)C[C@H](C)/C=C/C=C/C=C/1C [Rapamycin]
percent parasite growth at 2 µg/mL [1, 16]: 132%
percent parasite growth at 2 µg/mL [1, 17]: 75.7%
activity at 2 µg/mL [2, 18]: 104%
activity at 2 µg/mL [2, 19]: 102%
activity at 2 µg/mL [3, 20]: 86.2%
activity at 2 µg/mL [3, 21]: 116%

Cc1cc(O)cc2oc(=O)c3c(O)cc(O)cc3c12 [Alternariol]
percent parasite growth at 2 µg/mL ([1]; library screen at 2 μg/mL, 72 h, % growth, replicate 1, read-out: Tg_72h_%Growth_Rep1): 37.5%
percent parasite growth at 2 µg/mL ([1]; library screen at 2 μg/mL, 72 h, % growth, replicate 2, read-out: Tg_72h_%Growth_Rep2): 99.9%
activity at 2 µg/mL ([2]; 3D7, library screen at 2 μg/mL, 120 h, % growth, replicate 1, read-out: Pf_120h_%Growth_Rep1): 171%
activity at 2 µg/mL ([2]; 3D7, library screen at 2 μg/mL, 120 h, % growth, replicate 2, read-out: Pf_120h_%Growth_Rep2): 90.2%
activity at 2 µg/mL ([3]; 3D7, library screen at 2 μg/mL, 72 h, % growth, replicate 1, read-out: Pf_72h_%Growth_Rep1): 84.6%
activity at 2 µg/mL ([3]; 3D7, library screen at 2 μg/mL, 72 h, % growth, replicate 2, read-out: Pf_72h_%Growth_Rep2): 91.2%

CCC(C)(C)C(=O)O[C@H]1C[C@@H](C)C=C2C=C[C@H](C)[C@H](CC[C@@H]3C[C@@H](O)CC(=O)O3)[C@H]21 [Simvastatin]
percent parasite growth at 2 µg/mL [1, 16]: 93.5%
percent parasite growth at 2 µg/mL [1, 17]: 71.4%
activity at 2 µg/mL [2, 18]: 83.8%
activity at 2 µg/mL [2, 19]: 70.2%
activity at 2 µg/mL [3, 20]: 83.1%
activity at 2 µg/mL [3, 21]: 118%

CCC(C(=O)C(C)C(O)C(C)CCc1ccc(C)c(O)c1C(=O)O)C1OC(CC)(C2CCC(O)(CC)C(C)O2)CC1C (stereo not drawn) [BIA-L1533]
Tg_72h_%Growth_Rep1 [1, 4]: -0.84%
Tg_72h_%Growth_Rep2 [1, 5]: -0.33%
Pf_120h_%Growth_Rep1 [2, 6]: 6.55%
Pf_120h_%Growth_Rep2 [2, 7]: 19.46%
Pf_72h_%Growth_Rep1 [3, 8]: 6.55%
Pf_72h_%Growth_Rep2 [3, 9]: 4.89%

CC[C@H]1OC(=O)[C@H](C)[C@@H](O[C@H]2C[C@@](C)(OC)[C@@H](O)[C@H](C)O2)[C@H](C)[C@@H](O[C@@H]2O[C@H](C)C[C@H](N(C)C)[C@H]2O)[C@](C)(O)C[C@@H](C)C(=O)[C@H](C)[C@@H](O)[C@H]1C [Erythromycin B]
Tg_72h_%Growth_Rep1 [1, 22]: 53.14%
Tg_72h_%Growth_Rep2 [1, 23]: 48.82%
Pf_120h_%Growth_Rep1 [2, 24]: 64.18%
Pf_120h_%Growth_Rep2 [2, 25]: 47.52%
Pf_72h_%Growth_Rep1 [3, 22]: 77.77%
Pf_72h_%Growth_Rep2 [3, 23]: 67.71%

CCCCCCC(C)C/C(C)=C/C(C)/C=C(C)/C=C/C(O)C(C)(C)c1cc(O)c([C@@H]2O[C@H](CO)C[C@H](O)[C@H]2O)c(=O)o1 (stereo partly drawn) [Deoxyfusapyrone]
Tg_72h_%Growth_Rep1 [1, 10]: 120.14%
Tg_72h_%Growth_Rep2 [1, 11]: 99.56%
Pf_120h_%Growth_Rep1 [2, 12]: 68.41%
Pf_120h_%Growth_Rep2 [2, 13]: 93.55%
Pf_72h_%Growth_Rep1 [3, 14]: 84.11%
Pf_72h_%Growth_Rep2 [3, 15]: 85.81%

C[C@@H](O)[C@@H]1NC(=O)[C@@H](N)C[C@@H](O)[C@@H](O)NC(=O)[C@@H]2[C@@H](O)[C@@H](C)CN2C(=O)[C@H]([C@H](O)CC(N)=O)NC(=O)[C@H]([C@H](O)[C@@H](O)c2ccc(O)c(OS(=O)(=O)O)c2)NC(=O)[C@@H]2C[C@@H](O)CN2C1=O [FR 179642] (H-[Orn(4R-OH,5R-OH)]T[Hyp][hTyr(3S-OH,4S-OH,3'-OSO3H)][Gln(3R-OH)][Pro(3S-OH,4S-Me)]; lactam 1-C)
Tg_72h_%Growth_Rep1 [1, 22]: 133.49%
Tg_72h_%Growth_Rep2 [1, 23]: 86.61%
Pf_120h_%Growth_Rep1 [2, 24]: 98.57%
Pf_120h_%Growth_Rep2 [2, 25]: 95.35%
Pf_72h_%Growth_Rep1 [3, 22]: 86.67%
Pf_72h_%Growth_Rep2 [3, 23]: 86.11%
